Laboratory results taken from patent US20220062205A1, “TREATMENT OF GASTROINTESTINAL DISORDERS AND SYMPTOMS THEREOF” (Indiana University Research and Technology Corporation, priority 2018, published 2022).

Key:
[1] = test system: Winnie mice; assay: Ex vivo whole organ bath colonic motility of colons from treated mice; format: in vivo, mouse; conditions: excised whole colons of treated Winnie mice; mean±SEM, n=5
Method: The small molecular APE1/Ref-1 antagonist; APX3330, was administered via IP injections in Winnie mice at a dose of 25 mg/kg (30 G needle, max volume 200 μl) dissolved in Cremphore (2%) (Sigma-Aldrich): Ethanol (2%) in sterile water (96%). Mice received alternating IP injections twice a day with 12-hour intervals, over the course of two weeks during predominate intestinal inflammation. Winnie-sham treated mice received vehicle injections excluding APX3330 drugs. All mice were monitored, weighed and faecal pellets were collected over the course of treatment. Colonic motility experiments were completed ex vivo. Whole colons were removed from control C57BL/6, Winnie-sham treated and Winnie-APX3330 treated mice. Colons were positioned horizontally cannulated at the oral and anal end in an organ bath superfused with carbogenated (composition in mM: NaCl 118, KCl 4.6, CaCl2 3.5, MgSO4 1.2, NAH2PO4 1, NaHCO3 25 and d-Glucose; carbongenated with 95% O2 and 5% CO2) ×1 Krebs solution whilst maintained at a temperature of 37° C. The oral cannula was connected to a reservoir with 1× Krebs solution that was adjusted to maintain intraluminal pressure (0 to +2 cm H2O). The anal end was coupled to an out-flow tube with a maximum 2 cm H2O backpressure. A recording was made by a video camera being positioned above the organ bath, this recorded the colonic contractile activity. Tissue were left to equilibrate for 30 minutes prior to 2× 20-minute recordings at increasing intraluminal pressure. Videos were transposed into spatiotemporal maps with Scribble v2.0 software and were analysed by using MATLAB, v2017a software to assess parameters of colonic motility.

[2] = test system: Winnie mice; assay: Immunohistochemistry and histology of distal colon (cross sections and LMMP); format: in vivo, mouse
Method: The small molecular APE1/Ref-1 antagonist; APX3330, was administered via IP injections in Winnie mice at a dose of 25 mg/kg (30 G needle, max volume 200 μl) dissolved in Cremphore (2%) (Sigma-Aldrich): Ethanol (2%) in sterile water (96%). Mice received alternating IP injections twice a day with 12-hour intervals, over the course of two weeks during predominate intestinal inflammation. Winnie-sham treated mice received vehicle injections excluding APX3330 drugs. All mice were monitored, weighed and faecal pellets were collected over the course of treatment.
Distal colon tissues were harvested in oxygenated physiological saline, flushed of faecal content and cut along the mesenteric border. Tissues were pinned down with mucosal side upwards in a Slygard-lined petri dish and were briefly fixed with Zamboni's fixative (2% formaldehyde containing 0.2% picric acid) over night at 4° C. Zamboni's fixative was removed by a serial of washes (3×10 minutes) with dimethyl sulfoxide (DMSO) (Sigma-Aldrich, Sydney, Australia) followed by (3×10 minutes) with 1× phosphate buffered solution (PBS). Tissues were processed for cross sections wholemount longitudinal muscle-myenteric preparations (LMMP). For histological staining, β-tubulin III and α-Smooth muscle actin (SMA) labelling distal colon tissues were pinned and fixed as above without stretching and stored in 50:50 optimum cutting temperature (OCT) compound (Tissue Tek, CA, USA) and frozen in liquid nitrogen-cooled isopentane and OCT and stored at −80° C. until cryo-sectioned (20 μm) onto glass slides for immunohistochemistry (IHC). For immunolabeling glial fibrillary acidic protein (GFAP), microtubule associated protein-2 (MAP2), HMGB1 and APE1, the distal colon LMMPs were stretched to maximum capacity without tearing in Slygard-lined petri dishes and were subjected to fixation and washes as above. To expose the myenteric plexus, removal of mucosa, submucosa and circular muscle was performed prior to IHC.
Immunohistochemistry (IHC) was completed. Specimens were subjected to a one hour incubation at room temperature with 10% normalised donkey serum (NDS) (Merck Millipore, Australia) prior to labelling with primary antibodies (Table 2) in distal colon cross sections and LMMPs. Sections and preparation were washed with 1×PBS (3×10 minutes) and then briefly incubated with fluorophore-conjugated secondary antibodies (Table 2). All specimens were stained with 4′,6′-diamindino-2-pheylindole dihydrochloride (DAPI) to identify immunoreactive cells. Tissues were mounted on glass slides with fluorescent mounting medium (DAKO, North, Sydney, NSW, Australia Tissues for histology were cryo-sectioned at 10 μm, cleared and rehydrated in graded ethanol concentration. For standard hematoxylin and eosin stain (H&E) and Alcian blue stain, sections were immersed in histolene (3×4 minutes), 100% ethanol (2 minutes), 95% ethanol (2 minutes), 70% ethanol (2 minutes), rinsed in tap water (30 seconds), then in hematoxylin (Sigma-Aldrich) (1 minute) or Alcian blue (Sigma-Aldrich) (30 minutes), rinsed in tap water, immersed in Scott's tap water (1 minute) and eosin (Sigma-Aldrich) (5 minutes), rinsed in tap water, immersed in 100% ethanol (2×1 minute) and histolene (4 minutes) and finally mounted on glass slides with DPX mountant. A histological grading system evaluated gross morphological damage on constraints inclusive of mucosal flattening (0=normal, 3=severe flattening), manifestations of haemorrhagic sites (0=none, 3=frequent), damage or distortion to circular muscle (0=normal, 3=substantial thickening and disorganization of muscle layer) and loss to goblet cells (0=none, 3=depleted cells). All slides were coded, and analysis was performed blindly.
Confocal microscopy (Nikon Eclipse Ti multichannel confocal laser scanning system, Nikon, Japan) acquired immunolabelled sections. […]

[3] = LMMP distal colon, mean±SEM, n=6
[4] = distal colon cross sections, mean±SEM, n=5

`CCCCCCCCCC(=CC1=C(C)C(=O)C(OC)=C(OC)C1=O)C(=O)O` [APX3330] was tested. Which “proportional length of colonic migrating motor complexes (CMMCs)” value [1] did it give?
The value was 73±1.0%.

What about the “proportional short contraction length (<50% of colon length)” value [1] of the same molecule?
The value was 33.9±3.8%.

And the “total length of colonic contractions relative to total colon length” value [1]?
The value was 62.3±2.4%.

And the goblet cell density ([2]; Alcian blue, distal colon mucosa, mean±SEM, n=4)?
Its goblet cell density is 46.5±4.3%.

What about the histological grading ([2]; H&E / Alcian blue colon cross sections, mean±SEM, n=5) of the same molecule?
The histological grading was 4.8±0.7.

What about the “APE1 intensity (immunoreactivity density) in the myenteric ganglia” value ([2]; LMMP colon, mean±SEM, n=4) of the same molecule?
Its value is 6.0±1.4%.

And the “expression of Oxo-8dG-IR (oxidative DNA damage) in myenteric ganglia” value [2, 3]?
Its value is 2.0±0.9%.

And the “number of myenteric neurons IR for Oxo-8dG” value [2, 3]?
The value was 0.9±0.7.

And the “number of APE1-IR cells” value ([2]; LMMP, compared to control C57BL/6 and Winnie-sham (P<0.01))?
The value was “significantly decreased”.

And the “gross morphology of the colon (H&E stain)” value ([2]; colon cross sections of treated Winnie mice)?
The value was “attenuate damage to the colon”.

What about the “size of α-SMA-immunoreactive smooth muscle cells to nuclear size” value ([2]; distal colon cross sections, circular muscle, mean±SEM, n=5) of the same molecule?
Its value is 75.7±6.4%.

And the “number of α-SMA-IR smooth muscle cells within the circular muscle” value [2, 4]?
The value was 45.2±3.1.

What about the “β-tubulin (III)-IR nerve fibre density” value [2, 4] of the same molecule?
Its value is 13.3±0.8.

And the “proportional number of MAP2-IR myenteric neurons” value ([2]; myenteric ganglia, LMMP distal colon, mean±SEM, n=7)?
Its value is 31.9±2.2%.

What about the “number of cells with HMGB1 translocation into the cytosol” value ([2]; myenteric ganglia, LMMP, mean±SEM, n=4) of the same molecule?
The value was 0.9±0.3.

And the “GFAP-IR glial cell density relative to ganglion area” value ([2]; myenteric plexus, LMMP distal colon, mean±SEM, n=4)?
Its value is 64.2±8.8%.
